Reference: paper PMC7162861, “Synthesis, cytotoxicity, pharmacokinetic profile, binding with DNA and BSA of new imidazo[1,2-a]pyrazine-benzo[d]imidazol-5-yl hybrids” (Scientific Reports, 2020)

Columns and labels:
CCRF-CEM = experiment: NCI cytotoxicity screen, Leukemia panel; format: cell-based; conditions: Homo sapiens, single dose 10 µM, negative = lethal, read-out: Percent growth inhibition
Procedure: (§1) Cytotoxicity was performed at National Cancer Institute (NCI), Bethesda, USA as per their protocols.

HL-60(TB) = experiment: NCI cytotoxicity screen, Leukemia panel; format: cell-based; conditions: Homo sapiens, HL-60, HL-60(TB); single dose 10 µM; negative = lethal; read-out: Percent growth inhibition
Procedure: as §1

MOLT-4 = experiment: NCI cytotoxicity screen, Leukemia panel; format: cell-based; conditions: Homo sapiens, MOLT-4, MOLT-4; single dose 10 µM; negative = lethal; read-out: Percent growth inhibition
Procedure: as §1

SR = experiment: NCI cytotoxicity screen, Leukemia panel; format: cell-based; conditions: Homo sapiens, single dose 10 µM, negative = lethal, read-out: Percent growth inhibition
Procedure: as §1

A549/ATCC = experiment: NCI cytotoxicity screen, Non-Small Cell Lung Cancer panel; format: cell-based; conditions: Homo sapiens; A549/ATCC; single dose 10 µM; negative = lethal; read-out: Percent growth inhibition
Procedure: as §1

EXVX = experiment: as above; format: cell-based; conditions: Homo sapiens; EXVX; single dose 10 µM; negative = lethal; read-out: Percent growth inhibition
Procedure: as §1

HOP-62 = experiment: as above; format: cell-based; conditions: Homo sapiens, single dose 10 µM, negative = lethal, read-out: Percent growth inhibition
Procedure: as §1

HOP-92 = experiment: as above; format: cell-based; conditions: Homo sapiens, single dose 10 µM, negative = lethal, read-out: Percent growth inhibition
Procedure: as §1

NCI-H460 = experiment: as above; format: cell-based; conditions: Homo sapiens, single dose 10 µM, negative = lethal, read-out: Percent growth inhibition
Procedure: as §1

NCI-522 = experiment: as above; format: cell-based, human; conditions: Homo sapiens; NCI-522; single dose 10 µM; negative = lethal; read-out: Percent growth inhibition
Procedure: as §1

NCI-H226 = experiment: as above; format: cell-based, human; conditions: Homo sapiens, single dose 10 µM, negative = lethal, read-out: Percent growth inhibition
Procedure: as §1

NCI-H23 = experiment: as above; format: cell-based, human; conditions: Homo sapiens, single dose 10 µM, negative = lethal, read-out: Percent growth inhibition
Procedure: as §1

NCI-H322M = experiment: as above; format: cell-based, human; conditions: Homo sapiens, single dose 10 µM, negative = lethal, read-out: Percent growth inhibition
Procedure: as §1

HCC-2998 = experiment: NCI cytotoxicity screen, Colon Cancer panel; format: cell-based, human; conditions: Homo sapiens; HCC-2998; single dose 10 µM; negative = lethal; read-out: Percent growth inhibition
Procedure: as §1

KM12 = experiment: NCI cytotoxicity screen, Colon Cancer panel; format: cell-based, human; conditions: Homo sapiens, single dose 10 µM, negative = lethal, read-out: Percent growth inhibition
Procedure: as §1

SW-620 = experiment: NCI cytotoxicity screen, Colon Cancer panel; format: cell-based, human; conditions: Homo sapiens, single dose 10 µM, negative = lethal, read-out: Percent growth inhibition
Procedure: as §1

LOX IMVI = experiment: NCI cytotoxicity screen, Melanoma panel; format: cell-based, human; conditions: Homo sapiens, single dose 10 µM, negative = lethal, read-out: Percent growth inhibition
Procedure: as §1

M14 = experiment: NCI cytotoxicity screen, Melanoma panel; format: cell-based, human; conditions: Homo sapiens, single dose 10 µM, negative = lethal, read-out: Percent growth inhibition
Procedure: as §1

UACC-62 = experiment: NCI cytotoxicity screen, Melanoma panel; format: cell-based, human; conditions: Homo sapiens, single dose 10 µM, negative = lethal, read-out: Percent growth inhibition
Procedure: as §1

IGROV1 = experiment: NCI cytotoxicity screen, Ovarian Cancer panel; format: cell-based; conditions: Homo sapiens, IGROV-1, single dose 10 µM, negative = lethal, read-out: Percent growth inhibition
Procedure: as §1

NCI/ADR-RES = experiment: NCI cytotoxicity screen, Ovarian Cancer panel; format: cell-based; conditions: Homo sapiens, single dose 10 µM, negative = lethal, read-out: Percent growth inhibition
Procedure: as §1

OVCAR-4 = experiment: NCI cytotoxicity screen, Ovarian Cancer panel; format: cell-based; conditions: Homo sapiens; OVCAR-4; single dose 10 µM; negative = lethal; read-out: Percent growth inhibition
Procedure: as §1

OVCAR-5 = experiment: NCI cytotoxicity screen, Ovarian Cancer panel; format: cell-based; conditions: Homo sapiens, single dose 10 µM, negative = lethal, read-out: Percent growth inhibition
Procedure: as §1

OVCAR-8 = experiment: NCI cytotoxicity screen, Ovarian Cancer panel; format: cell-based; conditions: Homo sapiens, single dose 10 µM, negative = lethal, read-out: Percent growth inhibition
Procedure: as §1

SK-OV-3 = experiment: NCI cytotoxicity screen, Ovarian Cancer panel; format: cell-based; conditions: Homo sapiens, single dose 10 µM, negative = lethal, read-out: Percent growth inhibition
Procedure: as §1

OVCAR-3 = experiment: NCI cytotoxicity screen, Ovarian Cancer panel; format: cell-based, human; conditions: Homo sapiens; OVCAR-3; single dose 10 µM; negative = lethal; read-out: Percent growth inhibition
Procedure: as §1

786-0 = experiment: NCI cytotoxicity screen, Renal Cancer panel; format: cell-based, human; conditions: Homo sapiens, single dose 10 µM, negative = lethal, read-out: Percent growth inhibition
Procedure: as §1

TK-10 = experiment: NCI cytotoxicity screen, Renal Cancer panel; format: cell-based, human; conditions: Homo sapiens, single dose 10 µM, negative = lethal, read-out: Percent growth inhibition
Procedure: as §1

A498 = experiment: NCI cytotoxicity screen, Renal Cancer panel; format: cell-based; conditions: Homo sapiens, single dose 10 µM, negative = lethal, read-out: Percent growth inhibition
Procedure: as §1

ACHN = experiment: NCI cytotoxicity screen, Renal Cancer panel; format: cell-based; conditions: Homo sapiens, single dose 10 µM, negative = lethal, read-out: Percent growth inhibition
Procedure: as §1

CAKI-1 = experiment: NCI cytotoxicity screen, Renal Cancer panel; format: cell-based; conditions: Homo sapiens; CAKI-1; single dose 10 µM; negative = lethal; read-out: Percent growth inhibition
Procedure: as §1

RXF 393 = experiment: NCI cytotoxicity screen, Renal Cancer panel; format: cell-based; conditions: Homo sapiens, single dose 10 µM, negative = lethal, read-out: Percent growth inhibition
Procedure: as §1

SN12C = experiment: NCI cytotoxicity screen, Renal Cancer panel; format: cell-based; conditions: Homo sapiens, single dose 10 µM, negative = lethal, read-out: Percent growth inhibition
Procedure: as §1

UO-31 = experiment: NCI cytotoxicity screen, Renal Cancer panel; format: cell-based; conditions: Homo sapiens, single dose 10 µM, negative = lethal, read-out: Percent growth inhibition
Procedure: as §1

DU-145 = experiment: NCI cytotoxicity screen, Prostate Cancer panel; format: cell-based, human; conditions: Homo sapiens, single dose 10 µM, negative = lethal, read-out: Percent growth inhibition
Procedure: as §1

PC-3 = experiment: NCI cytotoxicity screen, Prostate Cancer panel; format: cell-based, human; conditions: Homo sapiens, single dose 10 µM, negative = lethal, read-out: Percent growth inhibition
Procedure: as §1

BT-549 = experiment: NCI cytotoxicity screen, Breast Cancer panel; format: cell-based; conditions: Homo sapiens, single dose 10 µM, negative = lethal, read-out: Percent growth inhibition
Procedure: as §1

HS 578 T = experiment: NCI cytotoxicity screen, Breast Cancer panel; format: cell-based; conditions: Homo sapiens; HS 578T; single dose 10 µM; negative = lethal; read-out: Percent growth inhibition
Procedure: as §1

MCF7 = experiment: NCI cytotoxicity screen, Breast Cancer panel; format: cell-based; conditions: Homo sapiens, single dose 10 µM, negative = lethal, read-out: Percent growth inhibition
Procedure: as §1

MDA-MB-231/ATCC = experiment: NCI cytotoxicity screen, Breast Cancer panel; format: cell-based; conditions: Homo sapiens, MDA-MB-231, read-out: Percent growth inhibition
Procedure: as §1

MDA-MB-468 = experiment: NCI cytotoxicity screen, Breast Cancer panel; format: cell-based; conditions: Homo sapiens, single dose 10 µM, negative = lethal, read-out: Percent growth inhibition
Procedure: as §1

T-47D = experiment: NCI cytotoxicity screen, Breast Cancer panel; format: cell-based; conditions: Homo sapiens, T47D, T-47D; single dose 10 µM; negative = lethal; read-out: Percent growth inhibition
Procedure: as §1

[1] = Experimental log P, shake-flask method; format: physicochemical; conditions: n-octanol/phosphate buffer pH 7.4, read-out: Exp. Log P
Method in brief: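 Shake-flask partitioning between n-octanol and phosphate buffer pH 7.4, shaken 50 min, then centrifuged 35 min at 2500 rpm. Buffer-phase absorbance at each compound's λmax measured before and after partitioning. P calculated from absorbance drop and phase volume ratio.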

`c1cn2cc(-c3ccsc3)nc(-c3ccc4c(c3)ncn4C3CCCCC3)c2n1` [Compound 14, 8-(1-cyclohexyl-1H-benzo[d]imidazol-5-yl)-6-(thiophen-3-yl)imidazo[1,2-a]pyrazine] gave an inhibition at 10 µM (CCRF-CEM) of 1.1%, an inhibition at 10 µM (HL-60(TB)) of 2.65% and an inhibition at 10 µM (MOLT-4) of 14.3%. For the same compound, the inhibition at 10 µM (SR) was 23.6%, the inhibition at 10 µM (A549/ATCC) was less than 1% and the inhibition at 10 µM (EXVX) was less than 1%. For the same compound, the inhibition at 10 µM (HOP-62) was 7.41%, the inhibition at 10 µM (HOP-92) was 25% and the inhibition at 10 µM (NCI-H460) was 7.12%. The inhibition at 10 µM (NCI-522) was 10.4%, the inhibition at 10 µM (NCI-H226) was less than 1% and the inhibition at 10 µM (NCI-H23) was 8.6%. For the same compound, the inhibition at 10 µM (NCI-H322M) was 1.19%, the inhibition at 10 µM (HCC-2998) was less than 1% and the inhibition at 10 µM (KM12) was 11.7%. It also gave an inhibition at 10 µM (SW-620) of less than 1%, an inhibition at 10 µM (LOX IMVI) of 14.5% and an inhibition at 10 µM (M14) of 3.43%. It also gave an inhibition at 10 µM (UACC-62) of 18.5%, an inhibition at 10 µM (IGROV1) of 19.1% and an inhibition at 10 µM (NCI/ADR-RES) of 4.17%. The inhibition at 10 µM (OVCAR-4) was less than 1%, the inhibition at 10 µM (OVCAR-5) was less than 1% and the inhibition at 10 µM (OVCAR-8) was 6.38%. For the same compound, the inhibition at 10 µM (SK-OV-3) was less than 1%, the inhibition at 10 µM (OVCAR-3) was less than 1% and the inhibition at 10 µM (786-0) was less than 1%. It also gave an inhibition at 10 µM (TK-10) of less than 1%, an inhibition at 10 µM (A498) of less than 1% and an inhibition at 10 µM (ACHN) of 4.32%. For the same compound, the inhibition at 10 µM (CAKI-1) was less than 1%, the inhibition at 10 µM (RXF 393) was less than 1% and the inhibition at 10 µM (SN12C) was 6.33%. The inhibition at 10 µM (UO-31) was 23.1%, the inhibition at 10 µM (DU-145) was less than 1% and the inhibition at 10 µM (PC-3) was 17.9%. The inhibition at 10 µM (BT-549) was 4.68%, the inhibition at 10 µM (HS 578 T) was 6.34% and the inhibition at 10 µM (MCF7) was 12%. It also gave an inhibition at 10 µM (MDA-MB-231/ATCC) of 7.65%, an inhibition at 10 µM (MDA-MB-468) of 0.73% and an inhibition at 10 µM (T-47D) greater than 50%. It also gave a logP [1] of 1.63 and a melting point of 185 to 188 °C.
